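These data come from cells grown in 96-well plates and exposed to compound for 48 hours at five concentrations. TGI marks complete inhibition of growth.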
How the values were obtained:
Test in all cases: NCI tumour cell line growth inhibition, 48 h
LXFL 529 NSCLC = system: LXFL 529 NSCLC
SN12K1 renal = system: SN12K1 renal
P388/ADR leukemia = system: P388/ADR leukemia
RXF-631 renal = system: RXF-631 renal

SMILES	TGI (LXFL 529 NSCLC)	TGI (SN12K1 renal)	TGI (P388/ADR leukemia)	TGI (RXF-631 renal)
C=C1C(=O)OC2/C=C(\CO)C3OC3C3OC3(C)CC(OC(=O)/C(=C/C)COC(C)=O)C12 (configuration not stated)	2.17 µM	–	–	–
CSc1nc2c(ncn2C2OC(CO)C(O)C(O)C2O)c(=O)n1C (configuration not stated)	–	> 100 µM	–	–
O=C1Sc2sc(=S)sc2SC1c1ccccc1 (configuration not stated)	–	> 65.2 µM	> 67.7 µM	–
C=C1C(=O)OC2/C=C(CO)/C=C\C3OC3(C)CC(OC(=O)/C(C)=C/COC(C)=O)C12 (configuration not stated)	4.27 µM	–	–	12.1 µM
COc1ccc2[nH]c(=O)cc(C)c2c1[N+](=O)[O-]	> 100 µM	–	–	> 100 µM
CC1=CC2=C(C=O)C(=O)[C@](C)(O)[C@@H](O)C2=CO1	–	> 100 µM	33.8 µM	–
COc1cc(C2c3cc4c(cc3[C@@H](Nc3cnc5ccccc5c3)C3COC(=O)[C@H]23)OCO4)cc(OC)c1O (some centres not stated)	–	2.08 µM	1.36 µM	–
